In this assay the target is T1, SARS-CoV-2 3CL-Pro (Severe acute respiratory syndrome coronavirus 2, UniProt P0DTD1).
T1 construct: SARS-CoV-2 main protease (3CL-Pro), also termed M-Pro
In words: biochemical. The settings on record: for inhibition at 20 µM: read-out: 3CL-Pro Inhibition [%] Primary Screen (20 µM).

Where [1] appears, read: dose response, 8 concentrations, absence of DTT, 60 min pre-incubation at 37 °C, 15 µM substrate, 60 nM enzyme, read-out: IC50.

Experimental findings from patent EP4011367A1, “COMPOUNDS FOR USE IN THE TREATMENT OF COVID-19” (priority 2020, dated 2022) are described below.

Structures can show the parent of a compound that is named as a salt. Where two headings read alike, the source gives them in different places.

`COc1ccc2[nH]c([S+]([O-])Cc3ncc(C)c(OC)c3C)nc2n1` (racemic) [compound 9, (±)-5-Methoxy-2-(4-methoxy-3,5-dimethylpyridin-2-ylmethylsulfinyl)imidazo[4,5-b]pyridine]: half-maximal inhibition (IC50) was put at 0.97 µM and the inhibition (usually the change of the read-out against control, counted positive when it falls) at 20 µM stood at 69.1%.

For the molecule `Oc1cc2c(cc1O)[C@@H]1c3ccccc3CN[C@H]1CC2` (relative stereo) [compound 77, trans-10,11-Dihydroxy-5,6,6a,7,8,12b-hexahydrobenzo[a]phenanthridine], the IC50 – broadly, the point on the concentration scale where inhibition reaches its midpoint – was 1.05 µM.

As for `O=c1cc(-c2ccccc2)oc2cc(O)c(O)c(O)c12` [compound 1, 5,6,7-Trihydroxy-2-phenyl-4H-1-benzopyran-4-one], the inhibition at 20 µM came to 97.8%.

For the molecule `O=C1c2c(O)cc(O)cc2O[C@H](c2cc(O)c(O)c(O)c2)[C@H]1O` [compound 2, (+)-3(R),5,7-Trihydroxy-2(R)-(3,4,5-trihydroxyphenyl)-3,4-dihydro-2H-1-benzopyran-4-one], the inhibition at 20 µM worked out at 99.7%.

On to `O=c1cc(-c2ccc(O)cc2)oc2cc(O)cc(O)c12` [compound 4, 4',5,7-Trihydroxyflavone], for which the inhibition at 20 µM was 94.5%. Also, under “read-out: IC50”, the IC50 came out at 3.02 µM.

As to `C[C@@H]1O[C@@H](Oc2c(-c3cc(O)c(O)c(O)c3)oc3cc(O)cc(O)c3c2=O)[C@H](O)[C@H](O)[C@H]1O` [compound 5, 5,7-Dihydroxy-4-oxo-2-(3,4,5-trihydroxyphenyl)-4H-1-benzopyran-3-yl alpha-L-rhamnopyranoside], the IC50 worked out at 3.66 µM and the inhibition at 20 µM worked out at 90.6%.

As for `O=C(O[C@@H]1Cc2c(O)cc(O)cc2O[C@@H]1c1cc(O)c(O)c(O)c1)c1cc(O)c(O)c(O)c1` [compound 6, (-)-3,4,5-Trihydroxybenzoic acid 5,7-dihydroxy-2(R)-(3,4,5-trihydroxyphenyl)-3,4-dihydro-2H-1-benzopyran-3(R)-ylester], the inhibition at 20 µM is 95.3%.

Turning to `COCCCOc1ccnc(C[S+]([O-])c2nc3ccccc3[nH]2)c1C` (stereo not shown) [compound 8, 2-[4-(3-Methoxypropoxy)-3-methylpyridin-2-ylmethylsulfinyl]benzimidazol-1-ide sodium salt], the inhibition at 20 µM is 94.3%. Besides, the IC50 (read-out: IC50) is 0.74 µM.

For `O=c1c2ccccc2[se]n1-c1ccccc1` [compound 10, 2-Phenyl-1,2-benzisoselenazol-3(2H)-one], the inhibition at 20 µM worked out at 100%.

`Cc1ccc(C)c(-n2sc3cc(F)ccc3c2=O)c1` [compound 11, 2-(2,5-Dimethylphenyl)-6-fluoro-1,2-benzothiazol-3(2H)-one]: the inhibition at 20 µM worked out at 101%. In addition, the IC50 (read-out: IC50) is 0.02 µM.

As for `Cc1ccc(-n2sc3ccccc3c2=O)cc1` [compound 12, 2-(4-methylphenyl)-1,2-benzothiazol-3-one], the IC50 turned out to be 0.02 µM and the inhibition at 20 µM turned out to be 101%.

On to `CN(C)S(=O)(=O)c1cccc(-n2sc3ccccc3c2=O)c1` [compound 13, N,N-di methyl-3-(3-oxo-1,2-benzothiazol-2-yl)benzenesulfonamide], for which the inhibition at 20 µM is 101%. Under setting [1], the IC50 is 0.02 µM.

Take `O=c1c2ccccc2sn1-c1ccccc1` [compound 14, 2-phenyl-1,2-benzothiazol-3-one]: the midpoint of inhibition, the IC50, lay at 0.02 µM and the inhibition at 20 µM was found to be 100%.

On to `O=C1C(Cl)=C(N2CCOCC2)C(=O)N1c1ccc(Cl)c(Cl)c1` [compound 15, 3-chloro-1-(3,4-dichlorophenyl)-4-morpholin-4-ylpyrrole-2,5-dione], for which the inhibition at 20 µM amounted to 99.2%. Moreover, under “read-out: IC50”, the IC50 was found to be 1.14 µM.

As for `CN1CCN(C2=C(Cl)C(=O)N(c3ccc(Cl)c(Cl)c3)C2=O)CC1` [compound 16, 3-chloro-1-(3,4-dichlorophenyl)-4-(4-methylpiperazin-1-yl)pyrrole-2,5-dione], the inhibition at 20 µM was 100%.

For `Cc1ccc(S(=O)(=O)C=CC#N)cc1` [compound 17, 3-(4-Methylphenylsulfonyl)-2-propenenitrile], the IC50 turned out to be 0.82 µM and the inhibition at 20 µM worked out at 95.7%.

With `CC(C)(C)c1ccc(S(=O)(=O)/C=C/C#N)cc1` [compound 18, 3-(4-tert-Butylphenylsulfonyl)-2(E)-propenenitrile], the inhibition at 20 µM is 100%. Also, where the note is “read-out: IC50”, the IC50 worked out at 0.84 µM.

Turning to `Cn1sc(=O)n(Cc2ccccc2)c1=O` [compound 19, 4-Benzyl-2-methyl-1,2,4-thiadiazolidine-3,5-dione], the inhibition at 20 µM was determined as 101%. For the same molecule, the IC50 (read-out: IC50) worked out at 0.14 µM.

Take `S=c1[nH]nc(Cc2ccccc2)s1` [compound 20, 5-benzyl-3H-1,3,4-thiadiazole-2-thione]: the inhibition at 20 µM amounted to 101%. Also, the IC50 under setting [1] worked out at 0.39 µM.

As for `Cc1ccc(S(=O)(=O)N[C@@H](Cc2ccccc2)C(=O)C(=O)CCl)cc1` [compound 21, N-[(2S)-5-chloro-3,4-dioxo-1-phenylpentan-2-yl]-4-methylbenzenesulfonamide], the IC50 was 1.37 µM and the inhibition at 20 µM came out at 99.7%.

Regarding `CC(Cc1ccc(O)c(O)c1)C(C)Cc1ccc(O)c(O)c1` (stereo not shown) [compound 22, 4-[4-(3,4-dihydroxyphenyl)-2,3-dimethylbutyl]benzene-1,2-diol], the inhibition at 20 µM was 98.5%. In addition, where the note is “read-out: IC50”, the IC50 came out at 2.59 µM.

`O=C1C2CC=CCC2C(=O)N1SC(Cl)(Cl)Cl` (stereo not shown) [compound 23, 2-(trichloromethylsulfanyl)-3a,4,7,7a-tetrahydroisoindole-1,3-dione]: the inhibition at 20 µM came to 99.8%. The IC50 (read-out: IC50) was found to be 0.67 µM.

On to `S=c1[nH]c2ccccc2s1` [compound 24, 3H-1,3-benzothiazole-2-thione], for which the inhibition at 20 µM was determined as 94%. Also, the IC50 (read-out: IC50) amounted to 1.74 µM.

With `c1ccc2sc(SNC3CCCCC3)nc2c1` [compound 26, N-(1,3-benzothiazol-2-ylsulfanyl)cyclohexanamine], the inhibition at 20 µM is 70.1%. Moreover, the IC50 (read-out: IC50) is 0.77 µM.

Take `c1ccc2sc(SN3CCOCC3)nc2c1` [compound 27, 4-(1,3-benzothiazol-2-ylsulfanyl)morpholine]: the inhibition at 20 µM turned out to be 99%. For the same molecule, under “read-out: IC50”, the IC50 was 5.05 µM.

Regarding `CCC(C)SSc1ncc[nH]1` (stereo not shown) [compound 28, (2-Imidazolyl)(1-methylpropyl)disulfide], the inhibition at 20 µM worked out at 100%.

With `O=C(O)c1ccc(SSc2ccc(C(=O)O)cn2)nc1` [compound 29, 6-[(5-carboxypyridin-2-yl)disulfanyl]pyridine-3-carboxylic acid], the inhibition at 20 µM was determined as 100%. For the same molecule, the IC50 (read-out: IC50) came to 0.24 µM.

As for `Oc1ccc2ccccc2c1SSc1c(O)ccc2ccccc12` [compound 30, 1,1'-Disulfanediylbis(2-naphthol)], the inhibition at 20 µM was 91.3%. Also, the IC50 (read-out: IC50) worked out at 0.51 µM.

In the case of `O=C1C=Cc2cc(Br)ccc2C1=O` [compound 32, 6-Bromonaphthalene-1,2-dione], the inhibition at 20 µM is 102%. Moreover, the half-inhibitory concentration (IC50) (read-out: IC50) worked out at 0.04 µM.

For `C=CC(=O)c1ccc2ccccc2c1` [compound 33, 1-naphthalen-2-ylprop-2-en-1-one], the inhibition at 20 µM was found to be 94.5%. The IC50 (read-out: IC50) came out at 1.24 µM.

`Nc1ccc(O)c2ncccc12` [compound 34, 5-aminoquinolin-8-ol]: the inhibition at 20 µM amounted to 99.3%. Further, the IC50 (read-out: IC50) is 2.05 µM.
